In experiment [1] the target is T1, GSNOR•NADH complex (Homo sapiens, UniProt P11766).
T1 construct: made in house; host or cells: E. coli
The experiment can be described thus: Fluorescence equilibrium binding to GSNOR•NADH complex. The note with it: 1.7 μM NADH, 2 μM GSNOR, 50 μM compound 8. How it is done:
Referring now to FIG. 2, (A) Changes in the fluorescence of NADH (curve a) upon sequential addition of GSNOR (curve b) and compound 8 (curve c). To a solution of 1.7 μM NADH were added 2 μM GSNOR and 50 μM compound 8 in sequence and the fluorescence of the solution measured each time (λexc=350 nm; λemm=375-550 nm); (B) Changes in the fluorescence of NADH (curve a) upon sequential addition of GSNOR (curve b), 12-HDDA (curve c) and compound 8 (curve d). To a solution of 1.7 μM NADH were added 2 μM GSNOR, 810 μM 12-HDDA and 50 μM compound 8 in sequence and the fluorescence measured each time (λexc=350 nm; λemm=375-550 nm); (C) Binding of compound 8 to GSNOR•NADH complex. The change in fluorescence of a 1.7 μM NADH and 2 μM GSNOR mixture (λexc=350 nm; λemm=455 nm) with increasing concentrations of compound 8 was fitted to a single site binding model (equation 1; see materials and methods) using the Graphpad Prizm 4. All of the fluorescence studies were conducted at room temperature in 50 mM potassium phosphate pH 7.5.
Referring now to Table 3, inhibition experiments were performed at 25° C. in 50 mM potassium phosphate (pH 7.5) including 0.1 mM EDTA. […] The dissociation constant was measured at 25° C. in 50 mM potassium phosphate pH 7.5. […]
Fluorescence studies were conducted in 50 mM potassium phosphate pH 7.5, at room temperature using a Fluoromax-2 fluorescence spectrometer (Instruments S.A., Inc., Edison, N.J.). The equilibrium dissociation constant of GSNOR inhibitors was determined by measuring the changes in the fluorescence of GSNOR bound NADH (λexc=350 nm; λemm=455 nm) upon the addition of inhibitor. […] The decrease in fluorescence at 455 nm with each addition of inhibitor was plotted against the final concentration of inhibitor and the data were fitted to equation 1 using nonlinear regression to obtain the dissociation constant of the inhibitor for GSNOR-NADH complex,
[formula] In equation 1, ΔF is the change in the fluorescence at 455 nm upon the addition of inhibitor. ΔFM is the maximum fluorescence change that was obtained from curve fitting. […]

Experiment [2] has as its system mouse aorta segments. The experiment can be described thus: Wire myography, relaxation of aortic rings. How it is done:
Referring now to FIG. 5, mouse aorta segments were equilibrated in oxygenated PSS (95% O2 and 5% CO2) at 37° C. Following equilibration, 1 μM phenylephrine was added to each ring for submaximal contraction. After stabilization, increasing concentrations (10−9 M to 10−4 M) of either compound 8 or sodium nitroprusside (SNP) was added to the rings and the tone of the rings determined (B) Inhibition of compound 8 induced relaxation of aortal rings by nitric oxide synthase inhibitor, L-NAME. To pre-equilibrated and submaximally contracted aortal rings with phenylephrine (1 micromolar), LNAME (500 micromolar) was added to the bath and allowed to incubate for 30 minutes. […] Each experiment was performed using two rings from three different mice and the mean (±SEM) for each response determined.
Mice were anesthetized with diethyl ether. A thoracotomy was performed to expose thoracic and abdominal aorta. A 25 gauge syringe was inserted into the apex of left ventricle and perfused free of blood with oxygenated Krebs Henseleit buffer. The right atrium was cut to provide an exit for blood. The aorta was removed and cleaned of fat and adventitia. The aorta was cut into 2-mm-long segments and mounted on a four-channel wire myograph (AD Instruments). Vessel rings were maintained in 10-ml organ baths with oxygenated PSS (95% O2 and 5% CO2) at 37° C. Rings were allowed to equilibrate for 80 minutes with the buffer in each organ bath changed every 20 min. One gram pretension was placed on each aortic ring (appropriate starting tension for optimal vasomotor function as determined in previous experiments). An eight-channel octal bridge (Powerlab) and data-acquisition software (Chart version 5.2.2) were used to record all force measurements. After equilibration for 80 min, 1 μM 27 phenylephrine was added to each ring for submaximal contraction. After stabilization, either compound 8 or sodium nitroprusside (SNP) was added to the rings and the tone of the rings determined. For the determination of SNP and ACh dose-response relationships, aortic rings were precontracted with 10−6 M PE, and SNP or compound 8 was then added in increasing concentrations from 10−9 M to 10−4 M. In a subset of experiments, L-NAME was added (500 μM final) to the bath and allowed to incubate for 30 minutes. After 30 minutes, compound 8 was added and the tone of the rings determined as described above.

Experiment [3] has as its target GSNOR (Homo sapiens, UniProt P11766). The experiment can be described thus: Dead-end inhibition studies of GSNOR. In kind it is biochemical. Details: made in house; host or cells: E. coli. The note with it: pH 7.5, 25° C., GSNO held at 10 μM. How it is done:
Referring now to Table 3, inhibition experiments were performed at 25° C. in 50 mM potassium phosphate (pH 7.5) including 0.1 mM EDTA. A minimum of five concentrations of the varied substrate and three inhibitor concentrations were used for each experiment. NADH and GSNO concentrations were held at 15 or 10 μM, respectively when present as a constant substrate in the assay. The Kis and Kii values are respectively the slope and intercept inhibition constants and are listed along with their associated standard errors. All data were fit to a competitive (C), noncompetitive (NC), or uncompetitive (UC) inhibition models. The type of inhibition shown in the table represents the best fit of the data to the given model as judged from F statistics analysis. […] The dissociation constant was measured at 25° C. in 50 mM potassium phosphate pH 7.5. Each KD value is an average of three independent experiments and is shown with the associated standard error.
Inhibition experiments with the GSNOR inhibitors were conducted at 25° C. in 3 ml of 50 mM potassium phosphate (pH 7.5) containing 0.1 mM EDTA. […] A minimum of three inhibitor concentrations were used in these assays and the rate of NADH and GSNO consumption was determined spectrophotometrically by following change in absorbance at 340 nm. […]

[4] abbreviates: direct comparison with sodium nitroprusside.

The text below walks through data of patent US9198909B1, “Materials and methods for inhibiting mamalian S-nitrosoglutathione reductase” (Indiana University Research and Technology Corporation, priority 2007, dated 2015).

Some results are limits rather than exact numbers.

T1 sequence (P11766 2-374 limits assumed, one chain of several): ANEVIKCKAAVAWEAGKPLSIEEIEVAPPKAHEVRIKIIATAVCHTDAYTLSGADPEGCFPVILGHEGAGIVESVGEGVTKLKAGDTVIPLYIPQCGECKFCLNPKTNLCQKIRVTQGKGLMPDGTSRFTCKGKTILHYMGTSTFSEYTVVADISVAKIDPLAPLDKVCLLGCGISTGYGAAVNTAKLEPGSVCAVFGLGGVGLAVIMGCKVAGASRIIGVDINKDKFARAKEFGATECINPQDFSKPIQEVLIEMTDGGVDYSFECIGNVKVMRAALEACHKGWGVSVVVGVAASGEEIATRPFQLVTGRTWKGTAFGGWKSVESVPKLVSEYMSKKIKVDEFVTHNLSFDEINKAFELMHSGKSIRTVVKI
GSNOR, sequence (P11766 2-374 limits assumed): as the sequence (P11766 2-374 limits assumed, one chain of several) above

As a reminder, the EC50 is the concentration at which the effect is half-maximal. As to `N#Cc1ccccc1CSc1nc2ccsc2c(=O)n1Cc1ccc(C(=O)O)cc1` [Compound 8], in experiment [1], the “effect on fluorescence of GSNOR bound NADH” value is given as “decreased the fluorescence of NADH”. Besides, the “effect on GSNOR•NADH•12-HDDA complex (displacement of 12-HDDA)” value in experiment [1] (810 μM 12-HDDA) was “displaced 12-HDDA from the active site”. The “time to begin relaxation” value in experiment [2] is on record as “around 3 minutes”. For the same compound, in experiment [2] (50 μM), the “duration of sustained vessel relaxation” value is listed as “up to 2 hours”, the “relaxation of the vessels” value is “completely relaxed” and the “time to complete relaxation” value is listed as ≤ 15 min. Moreover, the “inhibition of vasorelaxation by L-NAME preincubation” value in experiment [2] (500 μM L-NAME for 30 minutes, then 50 μM compound 8) is on record as “roughly 58%”. For the same compound, in experiment [2] (setting [4]), the “duration of the effect compared with SNP” value is given as “much longer than with SNP” and the “potency at relaxing vascular smooth muscle compared with SNP” value is given as “less potent than SNP”. In addition, the 50% effective concentration (EC50) in experiment [2] (rings precontracted with 1 μM phenylephrine, read-out: EC50 of vessel relaxation) came out at 5 µM. In addition, the “type of inhibition against varied NADH” value in experiment [3] was “uncompetitive”.
